Reference: ChEMBL document CHEMBL3885881, “DrugMatrix”

Species on record: Rattus norvegicus
Test: DrugMatrix - Regimen: Daily Repeat
Assay type: toxicity, organism-based, Sprague-Dawley
Parameters: regimen Daily Repeat, gender Male, age 6-8 weeks
Settings: in vivo, po, route oral GAVAGE, vehicle 100 % WATER; for ABSOLUTE BASOPHIL / ABSOLUTE EOSINOPHIL / ABSOLUTE LYMPHOCYTE / ABSOLUTE MONOCYTE / ABSOLUTE SEGMENTED NEUTROPHIL / BASOPHIL / EOSINOPHIL / ERYTHROCYTE COUNT / HEMATOCRIT / HEMOGLOBIN / LEUKOCYTE COUNT / LYMPHOCYTE / MEAN CORPUSCULAR HEMOGLOBIN / MEAN CORPUSCULAR HEMOGLOBIN CONCENTRATION / MEAN CORPUSCULAR VOLUME / MONOCYTE / NEUTROPHIL / NUCLEATED RED BLOOD CELLS / PLATELET COUNT: tissue Blood; for ALANINE AMINOTRANSFERASE / ALBUMIN / ALKALINE PHOSPHATASE / ASPARTATE AMINOTRANSFERASE / BLOOD UREA NITROGEN / CARBON DIOXIDE / CHLORIDE / CHOLESTEROL / CREATINE PHOSPHOKINASE / CREATININE / GLUCOSE / LACTATE DEHYDROGENASE / LIPASE / PHOSPHORUS / POTASSIUM / SODIUM / TOTAL BILIRUBIN / TOTAL PROTEIN / URIC ACID: tissue Plasma
[1] = 0 mg/kg, 72 h, dose level Control, time 3 day
[2] = 0 mg/kg, 120 h, dose level Control, time 5 day
[3] = 27 mg/kg, 72 h, dose level Low, time 3 day

## CNNCc1ccc(C(=O)NC(C)C)cc1 [PROCARBAZINE]
[1]
  ABSOLUTE BASOPHIL: 0 CELLS/uL
  ABSOLUTE EOSINOPHIL: 0 CELLS/uL
  ABSOLUTE LYMPHOCYTE: 7802.17 CELLS/uL
  ABSOLUTE MONOCYTE: 13.5 CELLS/uL
  ABSOLUTE SEGMENTED NEUTROPHIL: 617.67 CELLS/uL
  BASOPHIL: 0%
  EOSINOPHIL: 0%
  ERYTHROCYTE COUNT: 5.35 x10E6/uL
  HEMATOCRIT: 33.02%
  HEMOGLOBIN: 12.88 G/DL
  LEUKOCYTE COUNT: 8.43 x10E3/uL
  LYMPHOCYTE: 92.67%
  MEAN CORPUSCULAR HEMOGLOBIN: 24.12 pg
  MEAN CORPUSCULAR HEMOGLOBIN CONCENTRATION: 39.03 G/DL
  MEAN CORPUSCULAR VOLUME: 61.8 fL
  MONOCYTE: 0.17%
  NEUTROPHIL: 7.17%
  NUCLEATED RED BLOOD CELLS: 0 /100WBC
  PLATELET COUNT: 1124.83 x10E3/uL
  ALANINE AMINOTRANSFERASE: 54.17 u/L
  ALBUMIN: 4.07 G/DL
  ALKALINE PHOSPHATASE: 383.83 u/L
  ASPARTATE AMINOTRANSFERASE: 82.17 u/L
  BLOOD UREA NITROGEN: 13.67 mg/dL
  CARBON DIOXIDE: 31 mmol/L
  CHLORIDE: 100.83 MEQ/L
  CHOLESTEROL: 65.17 mg/dL
  CREATINE PHOSPHOKINASE: 228.33 u/L
  CREATININE: 0.12 mg/dL
  GLUCOSE: 148 mg/dL
  LACTATE DEHYDROGENASE: 97.83 u/L
  LIPASE: 9.17 u/L
  PHOSPHORUS: 9.75 mg/dL
  POTASSIUM: 5.85 MEQ/L
  SODIUM: 147.02 MEQ/L
  TOTAL BILIRUBIN: 0.18 mg/dL
  TOTAL PROTEIN: 6.1 G/DL
  URIC ACID: 0.5 mg/dL
[2]
  ABSOLUTE BASOPHIL: 0 CELLS/uL
  ABSOLUTE EOSINOPHIL: 0 CELLS/uL
  ABSOLUTE LYMPHOCYTE: 10538 CELLS/uL
  ABSOLUTE MONOCYTE: 15.83 CELLS/uL
  ABSOLUTE SEGMENTED NEUTROPHIL: 762.83 CELLS/uL
  BASOPHIL: 0%
  EOSINOPHIL: 0%
  ERYTHROCYTE COUNT: 5.49 x10E6/uL
  HEMATOCRIT: 34.63%
  HEMOGLOBIN: 13.72 G/DL
  LEUKOCYTE COUNT: 11.32 x10E3/uL
  LYMPHOCYTE: 92.67%
  MEAN CORPUSCULAR HEMOGLOBIN: 24.97 pg
  MEAN CORPUSCULAR HEMOGLOBIN CONCENTRATION: 39.57 G/DL
  MEAN CORPUSCULAR VOLUME: 63.05 fL
  MONOCYTE: 0.17%
  NEUTROPHIL: 7.17%
  NUCLEATED RED BLOOD CELLS: 0.17 /100WBC
  PLATELET COUNT: 802 x10E3/uL
  ALANINE AMINOTRANSFERASE: 50.5 u/L
  ALBUMIN: 4.07 G/DL
  ALKALINE PHOSPHATASE: 336.83 u/L
  ASPARTATE AMINOTRANSFERASE: 81 u/L
  BLOOD UREA NITROGEN: 14.17 mg/dL
  CARBON DIOXIDE: 32 mmol/L
  CHLORIDE: 98.33 MEQ/L
  CHOLESTEROL: 69.17 mg/dL
  CREATINE PHOSPHOKINASE: 253.33 u/L
  CREATININE: 0.13 mg/dL
  GLUCOSE: 153.67 mg/dL
  LACTATE DEHYDROGENASE: 157 u/L
  LIPASE: 9 u/L
  PHOSPHORUS: 10.78 mg/dL
  POTASSIUM: 6.11 MEQ/L
  SODIUM: 144.57 MEQ/L
  TOTAL BILIRUBIN: 0.15 mg/dL
  TOTAL PROTEIN: 6.05 G/DL
  URIC ACID: 0.73 mg/dL
[3]
  ABSOLUTE BASOPHIL: 0 CELLS/uL
  ABSOLUTE EOSINOPHIL: 0 CELLS/uL
  ABSOLUTE LYMPHOCYTE: 5898 CELLS/uL
  ABSOLUTE MONOCYTE: 47.67 CELLS/uL
  ABSOLUTE SEGMENTED NEUTROPHIL: 121 CELLS/uL
  BASOPHIL: 0%
  EOSINOPHIL: 0%
  ERYTHROCYTE COUNT: 5.61 x10E6/uL
  HEMATOCRIT: 35.4%
  HEMOGLOBIN: 13.53 G/DL
  LEUKOCYTE COUNT: 6.07 x10E3/uL
  LYMPHOCYTE: 97%
  MEAN CORPUSCULAR HEMOGLOBIN: 24.13 pg
  MEAN CORPUSCULAR HEMOGLOBIN CONCENTRATION: 38.2 G/DL
  MEAN CORPUSCULAR VOLUME: 63.1 fL
  MONOCYTE: 1%
  NEUTROPHIL: 2%
  NUCLEATED RED BLOOD CELLS: 0 /100WBC
  PLATELET COUNT: 1005 x10E3/uL
  ALANINE AMINOTRANSFERASE: 73.33 u/L
  ALBUMIN: 4.33 G/DL
  ALKALINE PHOSPHATASE: 429.33 u/L
  ASPARTATE AMINOTRANSFERASE: 103.33 u/L
  BLOOD UREA NITROGEN: 13.67 mg/dL
  CARBON DIOXIDE: 31.67 mmol/L
  CHLORIDE: 97.5 MEQ/L
  CHOLESTEROL: 76.33 mg/dL
  CREATINE PHOSPHOKINASE: 504 u/L
  CREATININE: 0.1 mg/dL
  GLUCOSE: 139.67 mg/dL
  LACTATE DEHYDROGENASE: 137.67 u/L
  LIPASE: 11.67 u/L
  PHOSPHORUS: 9.73 mg/dL
  POTASSIUM: 5.46 MEQ/L
  SODIUM: 144.3 MEQ/L
  TOTAL BILIRUBIN: 0.13 mg/dL
  TOTAL PROTEIN: 6.27 G/DL
  URIC ACID: 0.57 mg/dL
